In patent US20130281504A1, “Reduction of Microglia-Mediated Neurotoxicity by KCa3.1 Inhibition” (THE REGENTS OF THE UNIVERSITY OF CALIFORNIA, priority 2010, published 2013):

Legend:
hippocampal slices = experiment: AβO-treated organotypic hippocampal slice cultures; type: cell-based, mouse
Description: Hippocampal slice cultures (400 μm-thick) were prepared from 7-day-old C57BL/6J mice as previously described (25) and cultured for 10 days in vitro before use. Neuronal damage in the slices was monitored by PI uptake following Bernardino et al (27). PI itself is not toxic to neurons (27). […] After 24 hrs, the slices were observed under a Nikon Eclipse E600 microscope and the red (630 nm) fluorescence emitted by PI taken up by damaged cells was photographed by a digital camera (SPOT RTke, SPOT Diagnostics, Sterling Heights, Mich.) with fixed exposure time.
For immunofluorescent staining of neurons, cultures were fixed in 4% paraformaldehyde and stained with anti-PSD95 (1:200, Cell Signaling), anti-MAP2 (1:500, Chemicon) and anti-acetylated α-tubulin (1:250, Zymed). For immunofluorescent staining of microglia, cultures or hippocampal slices were fixed in 4% paraformaldehyde and stained with anti-IBA1 (1:500, Wako Chemicals USA), anti-SRA (E-20, 1:200, Santa Cruz Biotechnology), and anti-CD11b (1:200, AbD Serotec USA, Raleigh, N.C.). The fixed cells or hippocampal slices were incubated with antibodies for overnight at 4° C. followed by secondary Alexa488 conjugated anti-mouse or Alexa568 conjugated anti-rabbit antibody (1:700, Molecular probes). Immunostained images were observed under a Nikon Eclipse E600 microscope and photographed by a digital camera (SPOT RTke, SPOT Diagnostics, Sterling Heights, Mich.).
To obtain lysates, cells or tissues were washed with ice-cold PBS and incubated with a buffer containing 50 mmol/L Tris-HCl (pH 7.4), 150 mmol/L NaCl, 2% SDS, proteinase inhibitor cocktail (Sigma), and phosphatase inhibitor cocktail (Sigma). Lysates were briefly sonncated and cleared by centrifugation at 50,000 rpm for 10 min. Equivalent amounts of protein were analyzed by Tris/HCL gel electrophoresis. Proteins were transferred to polyvinylidene difluoride membranes and probed with antibodies. Visualization was performed using enhanced chemiluminescence (ECL, Amersham Pharmacia, Piscataway, N.J.).
Conditioned medium collected from microglia cultures (1×10^5/0.75 cm^2) and hippocampal slices treated with Aβ for 24 hrs were analyzed by the Nitric Oxide Quantization Kit according to the protocol of the manufacturer (Active Motif, Carlsbad, Calif.). Data were normalized to the amount of total protein.

[1] = system: experimental autoimmune encephalomyelitis (EAE); conditions: mice; cited from earlier work
[2] = Physiological parameters by I-STAT in venous blood of MCAO rats; type: in vivo, rat; conditions: ±SD
Description: […] […] Slices were then fixed in 10% buffer formalin embedded in paraffin and sectioned at 5 Sections were stained with hematoxylin & eosin and scanned. The resulting jpg images were analyzed in Adobe Photoshop CS3 for infarct area using the Magnetic Lasso tool to outline the area and the Histogram tool to determine the number of pixels in the respective area. Percent infarct for each slice was calculated as: (pixels in […]/pixels in whole control hemisphere)×100. Percentage of total infarct area of whole hemisphere was calculated as: (summation of pixels in infarct from 8 slices/summation of pixels in whole control hemisphere from 8 slices)×100. The degree of brain shrinkage was calculated from the same data.

[3] = After Reperfusion, TRAM-34 10 mg/kg
[4] = After Reperfusion, TRAM-34 40 mg/kg
[5] = Day-7 after MCAO, TRAM-34 10 mg/kg
[6] = Day-7 after MCAO, TRAM-34 40 mg/kg

Compound: Clc1ccccc1C(c1ccccc1)(c1ccccc1)n1cccn1 [TRAM-34, 1-[(2-chlorophenyl)diphenylmethyl]-1H-pyrazole]
- AβO-induced microglia activation in hippocampal slices (hippocampal slices; 20 nM AβO 24 hrs, co-treatment, FIG. 7A, 7C): substantially ameliorated
- AβO-induced NO production from hippocampal slices (hippocampal slices; 20 μM doxycycline, 1 μM TRAM-34, FIG. 7B): prevented
- AβO-enhanced PI uptake (neuronal damage) in hippocampal slices (hippocampal slices; 20 μM doxycycline, 1 μM TRAM-34, FIG. 7C): ameliorated
- AβO-induced reduction of dendritic and post-synaptic proteins in hippocampal slices (hippocampal slices; co-treatment, FIG. 7D): substantially ameliorated
- NO production from hippocampal slices, compound alone (hippocampal slices; without AβO): did not affect NO production
- experimental autoimmune encephalomyelitis (EAE) [1]: treats
- HCO3^− [2, 3]: 33.8 ± 6.4 mmol/L
- Hemoglobin [2, 3]: 14.3 ± 1.5 g/dL
- K^+ [2, 3]: 6.3 ± 1.1 mmol/L
- pCO2 [2, 3]: 66.6 ± 28.3 mm Hg
- pH [2, 3]: 7.34 ± 0.1
- Hemoglobin [2, 4]: 14.5 ± 1.4 g/dL
- K^+ [2, 4]: 5.7 ± 0.5 mmol/L
- Na^+ [2, 4]: 135.5 ± 2.3 mmol/L
- pCO2 [2, 4]: 60.8 ± 33.4 mm Hg
- BUN [2, 5]: 18.7 ± 6.8 mg/dL
- Glucose [2, 5]: 185.2 ± 41.2 mg/dL
- HCO3^− [2, 5]: 29.7 ± 2.5 mmol/L
- Hemoglobin [2, 5]: 12.7 ± 2.1 g/dL
- K^+ [2, 5]: 4.8 ± 1.1 mmol/L
- Na^+ [2, 5]: 137.7 ± 4.1 mmol/L
- pCO2 [2, 5]: 58.1 ± 12.7 mm Hg
- pH [2, 5]: 7.3 ± 0.06
- BUN [2, 6]: 19.6 ± 4.7 mg/dL
- Glucose [2, 6]: 201.1 ± 40.1 mg/dL
- HCO3^− [2, 6]: 29.2 ± 1.3 mmol/L
- Hemoglobin [2, 6]: 13.3 ± 1.5 g/dL
- K^+ [2, 6]: 4.2 ± 0.3 mmol/L
- Na^+ [2, 6]: 138.8 ± 3.5 mmol/L
- pCO2 [2, 6]: 49.3 ± 7.3 mm Hg
- pH [2, 6]: 7.4 ± 0.07
